The values that follow come from paper PMC6010070, “Antinociceptive potency of a fluorinated cyclopeptide Dmt-c[D-Lys-Phe-p-CF3-Phe-Asp]NH2” (Journal of Enzyme Inhibition and Medicinal Chemistry, 2018).

Each structure is given as a SMILES string. Like-named read-outs stand apart in the source and are kept apart here. Bridge positions count the residues as written; N and C are the ends. Square brackets hold non-standard residues; d marks the D form. Peptide text beside a SMILES is read from it. Phe(4-CF3) = N[C@@H](Cc1ccc(C(F)(F)F)cc1)C(=O)O; Dmt = Cc1cc(O)cc(C)c1C[C@H](N)C(=O)O

The subject of data set [1] is Male balb/c mice. Briefly: Histology, microscopic total damage score of distal colon (prevention model of colitis). It is filed as in vivo. Particulars: 1 mg/kg. Here is the method: Distal colon sections from the preventive mouse model of colitis were stapled flat, mucosal side-up, onto cardboard strips and fixed in 10% formalin for 24 h at 4 °C. Samples were dehydrated, embedded in paraffin, sectioned at 5 µm, and mounted onto slides. The sections were then stained with haematoxylin and eosin and Motic AE31 microscope (Ted Pella, Sweden) photographs were taken using a digital imaging system consisting of a digital camera (Moticam 2300, Ted Pella, Sweden) and image analysis software (Motic Images Plus 2.0, Germany).
The microscopic total damage score was assessed using the following parameters: the goblet cell depletion (presence = 1, absence = 0), crypt abscesses (presence = 1, absence = 0), the destruction of mucosal architecture (normal = 1, moderate = 2, extensive = 3), the extent of muscle thickening (normal =1, moderate = 2, extensive = 3), and the presence and degree of cellular infiltration (normal = 1, moderate = 2, transmural = 3).

Data set [2] deals with Male balb/c mice. The data set is described as follows: Semi-chronic model of TNBS-induced colitis (macroscopic damage, MPO activity). It is filed as in vivo. Here is the method: (§1) Male balb/c mice (Animal Facility of Nofer Institute of Occupational Medicine, Lodz, Poland) weighing 22–25 g were used to determine the anti-inflammatory and anti-nociceptive activity of cyclopeptides after i.p. administration. All procedures and protocols used in this study were approved by the Local Ethical Committee for Animal Research (protocol number: 20/ŁB708/2014, 26 May 2014). The study was carried out in accordance with the recommendations described in the Guide for the Care and Use of Laboratory Animals of the Medical University of Lodz, Poland. All experimental procedures were performed in accordance with the current guidelines for the care of laboratory animals (including the use of the 3Rs procedures) and in accordance with the ARRIVE guidelines.
(§2) The experimental colitis was induced by intracolonic (i.c.) administration of 2,4,6-trinitrobenzenesulfonic acid (TNBS). Mice were anesthetized with isoflurane (Aerrane, Baxter, Deerfield, IL) and TNBS at the dose of 4 mg per mouse (dissolved in 30% EtOH in saline) in the final volume of 150 µl, was injected into the colon through a catheter inserted 3 cm proximally from the anus. Mice were then maintained in an inclined position for 1 min to ensure the proper distribution of the inductor in the colon. Next, recovery was allowed with food and water supplied. Control animals received vehicle alone (30% ethanol in saline; TNBS replaced with equivolume water).
In the semi-chronic model, the curative potential of F-81 was tested. TNBS was administered on day 0 and from day 3 to day 6 the F-81 treatment (1 mg/kg in saline, 100 µl, i.p) was performed. On day 7, mice were sacrificed and the evaluation of colonic damage was performed.
(§3) To perform the macroscopic damage score, the colon was removed immediately after euthanasia, opened longitudinally, rinsed with phosphate buffered saline (PBS), and examined using an established semiquantitative scoring system by adding individual scores for ulcer, colonic shortening, wall thickness, and the presence of haemorrhage, faecal blood, and diarrhoea, as described before. For scoring ulcer and colonic shortening the following scale was used: ulcer: 0.5 points for each 0.5 cm; shortening of the colon: 1 point for >15%, 2 points for >25% (based on a mean length of the colon in untreated mice). The wall thickness was measured in millimetres, a thickness of n mm corresponded to n scoring points. The presence of haemorrhage, faecal blood, or diarrhoea increased the score by 1 point for each additional feature.
The colon fragments (20–30 mg) were gently isolated from mice after total macroscopic damage score assessment, immediately washed with PBS, and homogenized in hexadecyltrimethylammonium bromide (HTAB) buffer (0.5% HTAB in 50 mM potassium phosphate buffer, pH 6.0; 50 mg of tissue/ml) using Ika Ultra Turrax Disperser T25 Digital 2 (Sigma Aldrich, Poznan, Poland). The homogenates were centrifuged (20 min, 13,200g, 4 °C) and the supernatants were transferred to the new test tubes. […] The absorbance was measured at 450 nm after 30 and 60 s (iMARK Microplate Reader, Biorad, UK). […]
(§4) The MPO activity was expressed in units/g of a wet tissue. One unit is determined as a quantity of enzyme able to convert 1 µmol of H2O2 to water in 1 min at room temperature. MPO activity units were calculated from the standard curve using purified peroxidase enzyme.

The test system of data set [3] is Male balb/c mice. The data set is described as follows: Prevention mouse model of TNBS-induced colitis (macroscopic damage, MPO activity). It is filed as in vivo. Conditions: 1 mg/kg i.p. once daily. As to the method:
as §1, §2
In the prevention mouse model of colitis, F-81 was injected intraperitoneally (i.p.) at the dose of 1 mg/kg in saline, in the volume of 100 µl, once daily, for 3 days, 15 min prior to TNBS administration. Mice were weighted daily and monitored for clinical symptoms of colitis, including diarrhoea and bloody stool. On day 4, mice were sacrificed by rapid cervical dislocation and the macroscopic damage score was assessed.
as §3
The colon fragments (20–30 mg) were gently isolated from mice after total macroscopic damage score assessment, immediately washed with PBS, and homogenized in hexadecyltrimethylammonium bromide (HTAB) buffer (0.5% HTAB in 50 mM potassium phosphate buffer, pH 6.0; 50 mg of tissue/ml) using Ika Ultra Turrax Disperser T25 Digital 2 (Sigma Aldrich, Poznan, Poland). The homogenates were centrifuged (20 min, 13,200g, 4 °C) and the supernatants were transferred to the new test tubes. Then, 7 µl portions of supernatants were added on a 96-well plate, followed by 200 µl of 50 mM potassium phosphate buffer (pH = 6.0), containing 0.167 mg/ml of O-dianisidine hydrochloride and 0.05 µl of 1% H2O2. The absorbance was measured at 450 nm after 30 and 60 s (iMARK Microplate Reader, Biorad, UK). All measurements were done in triplicates.
as §4

Data set [4] deals with Male balb/c mice. The data set is described as follows: Mustard oil induced abdominal pain in mice with acute TNBS-induced colitis. It is filed as in vivo. Particulars: mustard oil i.c., 1 mg/kg i.p., counted for 20 min, control group 29.28 ± 2.52. As to the method: as §1
To assess the anti-nociceptive effect of F-81 in mice with acute colitis, intestinal inflammation was induced by TNBS instillation three days prior to the experiment. Abdominal pain was induced in inflamed mice by the i.c. injection of 1% mustard oil (MO, allyl isothiocyanate) in 70% EtOH in saline. Mice were separated into clear plastic boxes (20 × 20 × 15 cm) and allowed a 5 min recovery after MO administration. Spontaneous behaviours (licking and stretching the abdomen, squashing of lower abdomen against the floor, and abdominal retraction) were observed and counted for 20 min.

Another data set concerns kappa-opioid receptor. Also noted: method as in PMID 26005537, PMID 25047937. Particulars: cited from earlier work.
A short description of the next data set: Kinetic solubility assay. It is filed as physicochemical. Particulars: PBS buffer, pH 7.4. Here is the method:
Kinetic solubility assay was performed using Multiscreen HTS Vacuum Manifold (Merck Millipore, Warsaw, Poland). Compounds for this test were prepared as 10 mM stock solutions in DMSO and diluted in a standard PBS buffer (pH = 7.4), to the final concentrations of 0.5 mM. The solutions were applied into a 96-well filter plate and incubated for 90 min at room temperature, while shaking at 40 g and then filtrated. The concentration of each compound was determined on the basis of the prepared calibration curve using the UV–VIS spectrophotometric method. According to the absorption spectra of the compounds the wavelength used for the measurements was 280 nm for both, C-36 and F-81.

As for `Cc1cc(O)cc(C)c1C[C@H](N)C(=O)N[C@@H]1CCCCNC(=O)C[C@@H](C(N)=O)NC(=O)[C@H](Cc2ccc(C(F)(F)F)cc2)NC(=O)[C@H](Cc2ccccc2)NC1=O` [Peptide F-81, Dmt-c[D-Lys-Phe-p-CF3-Phe-Asp]NH2] (H-[Dmt][dK]F[Phe(4-CF3)]D-NH2; lactam 2-5 (inferred)), the Microscopic score result in the data set on Male balb/c mice [1] is listed as “significantly improved”. In addition, the “Colon thickness, width, or length versus TNBS-treated group” value in the data set on Male balb/c mice [2] (1 mg/kg i.p.) is recorded as “No differences”. The Macroscopic damage score in the data set on Male balb/c mice [2] (1 mg/kg i.p. day 3 to day 6, TNBS group 4.15 ± 0.54) was determined as 2.18 ± 0.40; in the data set with Male balb/c mice [3] (3 days, TNBS group 5.83) it was 4.07. Also, the Ulcer score is 0.92 ± 0.83 in the data set on Male balb/c mice [2] (1 mg/kg i.p., TNBS group 1.30 ± 0.12) and 1.43 ± 0.17 in the data set with Male balb/c mice [3] (TNBS group 2.06 ± 0.22). In addition, the Inflammation area with Male balb/c mice [2] (1 mg/kg i.p., TNBS group 18.49 ± 3.95) turned out to be 12.23 ± 1.56; with Male balb/c mice [3] (TNBS group 24.42 ± 2.92), 19.56 ± 2.16. The MPO activity in the data set on Male balb/c mice [2] (colon tissue, 1 mg/kg i.p., TNBS group 8.26 ± 0.15) is listed as 7.88 ± 0.24 units/g of a wet tissue; with Male balb/c mice [3] (colon tissue, TNBS group 11.82 ± 1.72), 3.65 ± 0.87 units/g of a wet tissue. Besides, the Intestinal wall thickness in the data set with Male balb/c mice [3] (TNBS group 1.08 ± 0.12, no difference) amounted to 0.95 ± 0.07 mm. The Colon width in the data set on Male balb/c mice [3] (TNBS group 7.91 ± 0.23) is 6.09 ± 0.53. In the data set with Male balb/c mice [3] (TNBS group 8.01 ± 0.39, no difference), this compound had a Colon length of 8.23 ± 0.24. For the same compound, the “Number of spontaneous pain behaviours” value in the data set with Male balb/c mice [4] was 6.36 ± 1.98. In addition, the kappa-affinity entry with kappa-opioid receptor is on record as “significant kappa-affinity”. Moreover, the solubility at 90 min in “Kinetic solubility assay” (read-out: Solubility Mean) came to 345 µM; in the data set “Kinetic solubility assay” (read-out: Solubility Mean (mg/ml)), 0.27 mg/mL.
